Source: patent US12599672B2, “KRAS proteolysis targeting chimeras” (PAQ Therapeutics Inc., priority 2023, dated 2026)

Key:
Assay type in all cases: cell-based
[1] = target: T1, KRAS (Homo sapiens, UniProt P01116); assay: KRASamp MSD assay; settings: KE39 (KRAS amplified) cells, treated with test compounds for 24 hr, MSD readout of KRAS degradation
T1 construct: endogenous in cells; host or cells: KE39 (KRAS amplified) cells
Outline: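 KRAS-amplified KE39 cells treated with compound for 24 hr, then lysed in RIPA buffer with protease/phosphatase inhibitors. KRAS protein measured by MSD sandwich immunoassay against a recombinant WT KRAS standard curve; DC50 derived from curve fitting of degradation.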

[2] = target: T2, KRAS G12V (Homo sapiens, UniProt P01116, G12V); assay: KRAS G12V HiBit assay; settings: SW620-KRAS (G12V)-HiBit-KI cells, compound treatment for 24 hours, class symbols
T2 construct: SW620-KRAS (G12V)-HiBit-KI cell (Pharmaron); host or cells: SW620-KRAS (G12V)-HiBit-KI cells (HiBiT knock-in at the endogenous KRAS locus)
Outline: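 HiBiT-tagged KRAS G12V cells treated 24 h with compound in a 3-fold, 10-point series (0.3 mM DMSO stock); lytic HiBiT reagent with LgBiT added after 15 min room-temperature equilibration. Degradation calculated against 0.1% DMSO high control.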

[3] = target: T3, KRAS G12D (Homo sapiens, UniProt P01116, G12D); assay: KRAS G12D HiBit assay; settings: AsPc-1-KRAS (G12D)-HiBit-KI cell, compound treatment for 24 hours; for DC50: absolute DC50
T3 construct: AsPc-1-KRAS (G12D)-HiBit-KI cell (Pharmaron); host or cells: AsPc-1-KRAS (G12D)-HiBit-KI cells (HiBiT knock-in at the endogenous KRAS locus)
Outline: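 Cells were treated for 24 h with compounds in a 3-fold, 10-point dilution series from a 0.3 mM DMSO stock, then equilibrated 15 min at room temperature. KRAS G12D HiBiT levels were read by luminescence after lytic Nano-Glo HiBiT reagent with LgBiT; inhibition calculated relative to 0.1% DMSO high control.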

T2 sequence (P01116 1-188 isoform P01116-2 G12V): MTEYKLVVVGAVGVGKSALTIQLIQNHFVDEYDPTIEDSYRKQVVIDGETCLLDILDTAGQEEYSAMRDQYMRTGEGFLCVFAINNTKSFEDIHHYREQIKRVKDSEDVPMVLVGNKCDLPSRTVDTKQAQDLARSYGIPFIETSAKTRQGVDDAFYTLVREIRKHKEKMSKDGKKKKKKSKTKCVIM
T1 sequence (P01116 1-188 isoform P01116-2): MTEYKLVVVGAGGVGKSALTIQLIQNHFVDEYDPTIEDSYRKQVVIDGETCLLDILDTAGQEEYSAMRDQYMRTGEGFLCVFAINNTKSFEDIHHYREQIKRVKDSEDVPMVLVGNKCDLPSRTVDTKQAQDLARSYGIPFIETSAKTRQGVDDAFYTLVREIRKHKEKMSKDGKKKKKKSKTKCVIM
T3 sequence (P01116 1-188 isoform P01116-2 G12D): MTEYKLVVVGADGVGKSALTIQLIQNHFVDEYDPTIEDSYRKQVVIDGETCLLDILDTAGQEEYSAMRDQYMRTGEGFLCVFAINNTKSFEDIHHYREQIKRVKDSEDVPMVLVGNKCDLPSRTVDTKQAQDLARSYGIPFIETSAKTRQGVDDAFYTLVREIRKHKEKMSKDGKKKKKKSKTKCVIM

Which results are given for CCc1c(F)ccc2cc(O)cc(-c3ncc4c(N5CCCCCC5)nc(OC[C@@]56CCCN5[C@H](COC(=O)N5CCC7(CC5)CC(N5CCC(c8ccc9c(c8)n(C)c(=O)n9C8CCC(=O)NC8=O)CC5)C7)CC6)nc4c3F)c12 (stereo partly drawn) [Compound 344, ((3S,7aS)-7a-(((4-(azepan-1-yl)-7-(8-ethyl-7-fluoro-3-hydroxynaphthalen-1-yl)-8-fluoropyrido[4,3-d]pyrimidin-2-yl)oxy)methyl)hexahydro-1H-pyrrolizin-3-yl)methyl 2-(4-(1-(2,6-dioxopiperidin-3-yl)-3-methyl-2-oxo-2,3-dihydro-1H-benzo[d]imidazol-5-yl)piperidin-1-yl)-7-azaspiro[3.5]nonane-7-carboxylate]?
DC50 [1]: 0.001 to 0.01 µM; DC50 [2]: > 0.1 µM; DC50 ([3]; numeric bounds given in place of class symbols): > 0.1 µM

What does the source list for C#Cc1c(F)ccc2cc(O)cc(-c3ncc4c(N5CCCCC5)nc(OC[C@@]56CCCN5[C@H](COC(=O)N5CCC(CN7CCC(c8ccc9c(c8)n(C)c(=O)n9C8CCC(=O)NC8=O)CC7)CC5)CC6)nc4c3F)c12 (stereo partly drawn) [Compound 122, ((3S,7aS)-7a-(((7-(8-Ethynyl-7-fluoro-3-hydroxynaphthalen-1-yl)-8-fluoro-4-(piperidin-1-yl)pyrido[4,3-d]pyrimidin-2-yl)oxy)methyl)hexahydro-1H-pyrrolizin-3-yl)methyl4-((4-(1-(2,6-dioxopiperidin-3-yl)-3-methyl-2-oxo-2,3-dihydro-1H-benzo[d]imidazol-5-yl)piperidin-1-yl)methyl) piperidine-1-carboxylate]?
DC50 [1]: < 0.001 µM; DC50 [2]: < 0.01 µM; DC50 ([3]; class symbols): < 0.1 µM; Dmax ([3]; class symbols): > 50%

With CCc1c(F)ccc2cc(O)cc(-c3ncc4c(N5CCC[C@@](C)(O)C5)nc(OC[C@@]56CCCN5[C@H](COC(=O)N5CCC(CN7CCC(c8ccc9c(c8)n(C)c(=O)n9C8CCC(=O)NC8=O)CC7)C5)CC6)nc4c3F)c12 (stereo partly drawn) [Compound 433, ((3S,7aS)-7a-(((7-(8-ethyl-7-fluoro-3-hydroxynaphthalen-1-yl)-8-fluoro-4-((R)-3-hydroxy-3-methylpiperidin-1-yl)pyrido[4,3-d]pyrimidin-2-yl)oxy)methyl)hexahydro-1H-pyrrolizin-3-yl)methyl 3-((4-(1-(2,6-dioxopiperidin-3-yl)-3-methyl-2-oxo-2,3-dihydro-1H-benzo[d]imidazol-5-yl)piperidin-1-yl)methyl)pyrrolidine-1-carboxylate] as the molecule, how does the DC50 [1] read?
Its DC50 is 0.001 to 0.01 µM.

And the DC50 [2]?
The DC50 was < 0.01 µM.

And the DC50 ([3]; class symbols)?
Its DC50 is < 0.1 µM.

C#Cc1c(F)ccc2cc(O)cc(-c3ncc4c(N5CCC[C@@](C)(O)C5)nc(OCC5(CN6CCC7(CC6)CC(N6CCC(c8cccc9c(C%10CCC(=O)NC%10=O)nn(C)c89)CC6)C7)CC5)nc4c3F)c12 (some centres unmarked) [Compound 69] was tested. Which DC50 [1] did it give?
Its DC50 is < 0.001 µM.

What about the DC50 [2] of the same molecule?
The DC50 was < 0.01 µM.

What about the DC50 ([3]; class symbols) of the same molecule?
Its DC50 is < 0.1 µM.

Which DC50 [1] does the source give for C#Cc1c(F)ccc2cc(O)cc(-c3ncc4c(N5CCCC(F)(F)C5)nc(OC[C@@]56CCCN5[C@H](COC(=O)N5CCC(CN7CCC(c8ccc9c(c8)n(C)c(=O)n9C8CCC(=O)NC8=O)CC7)CC5)CC6)nc4c3F)c12 (stereo partly drawn) [Compound 124, ((35,7aS)-7a-(((4-(3,3-Difluoropiperidin-1-yl)-7-(8-ethynyl-7-fluoro-3-hydroxynaphthalen-1-yl)-8-fluoropyrido[4,3-d]pyrimidin-2-yl)oxy)methyl)hexahydro-1H-pyrrolizin-3-yl)methyl4-((4-(1-(2,6-dioxopiperidin-3-yl)-3-methyl-2-oxo-2,3-dihydro-1H-benzo[d]imidazol-5-yl)piperidin-1-yl)methyl) piperidine-1-carboxylate] here?
The DC50 was < 0.001 µM.

And the DC50 [2]?
The DC50 was < 0.01 µM.

And the DC50 ([3]; class symbols)?
Its DC50 is < 0.1 µM.

And the Dmax ([3]; class symbols)?
Its Dmax is > 50%.

What does the source list for CCc1c(F)ccc2cc(O)cc(-c3ncc4c(N5CCOCC(C)(O)C5)nc(OC[C@@]56CCCN5[C@H](COC(=O)N5CCC(CN7CCC(c8ccc9c(c8)n(C)c(=O)n9C8CCC(=O)NC8=O)CC7)CC5)CC6)nc4c3F)c12 (stereo partly drawn) [Compound 118, ((3S,7aS)-7a-(((7-(8-Ethyl-7-fluoro-3-hydroxynaphthalen-1-yl)-8-fluoro-4-(6-hydroxy-6-methyl-1,4-oxazepan-4-yl)pyrido[4,3-d]pyrimidin-2-yl)oxy)methyl)hexahydro-1H-pyrrolizin-3-yl)methyl4-((4-(1-(2,6-dioxopiperidin-3-yl)-3-methyl-2-oxo-2,3-dihydro-1H-benzo[d]imidazol-5-yl)piperidin-1-yl)methyl) piperidine-1-carboxylate]?
DC50 [1]: < 0.001 µM; DC50 [2]: < 0.01 µM; DC50 ([3]; class symbols): < 0.1 µM

Which results are given for CCc1c(F)ccc2cc(O)cc(-c3ncc4c(N5CCCC(F)(F)C5)nc(OC[C@@]56CCCN5[C@H](COC(=O)N5CCC7(CC5)CC(N5CCC(c8ccc9c(c8)n(C)c(=O)n9C8CCC(=O)NC8=O)CC5)C7)CC6)nc4c3F)c12 (stereo partly drawn) [Compound 470, ((3S,7aS)-7a-(((4-(3,3-difluoropiperidin-1-yl)-7-(8-ethyl-7-fluoro-3-hydroxynaphthalen-1-yl)-8-fluoropyrido[4,3-d]pyrimidin-2-yl)oxy)methyl)hexahydro-1H-pyrrolizin-3-yl)methyl 2-(4-(1-(2,6-dioxopiperidin-3-yl)-3-methyl-2-oxo-2,3-dihydro-1H-benzo[d]imidazol-5-yl)piperidin-1-yl)-7-azaspiro[3.5]nonane-7-carboxylate]?
DC50 [1]: < 0.001 µM; DC50 [2]: < 0.01 µM; DC50 ([3]; class symbols): < 0.1 µM

CCc1c(F)ccc2cc(O)cc(-c3ncc4c(N5CCC[C@@](C)(O)C5)nc(OC[C@@]56CCCN5[C@H](COC(=O)N5CC7(CCC(CN8CCC(c9ccc%10c(c9)n(C)c(=O)n%10C9CCC(=O)NC9=O)CC8)CC7)C5)CC6)nc4c3F)c12 (stereo partly drawn) [Compound 448, ((3S,7aS)-7a-(((7-(8-ethyl-7-fluoro-3-hydroxynaphthalen-1-yl)-8-fluoro-4-((R)-3-hydroxy-3-methylpiperidin-1-yl)pyrido[4,3-d]pyrimidin-2-yl)oxy)methyl)hexahydro-1H-pyrrolizin-3-yl)methyl 7-((4-(1-(2,6-dioxopiperidin-3-yl)-3-methyl-2-oxo-2,3-dihydro-1H-benzo[d]imidazol-5-yl)piperidin-1-yl)methyl)-2-azaspiro[3.5]nonane-2-carboxylate] was tested. Which DC50 [1] did it give?
Its DC50 is < 0.001 µM.

What about the DC50 [2] of the same molecule?
Its DC50 is < 0.01 µM.

What about the DC50 ([3]; class symbols) of the same molecule?
The DC50 was < 0.1 µM.

How did the DC50 [1] turn out when C#Cc1c(F)ccc2cc(O)cc(-c3ncc4c(N5CCC[C@@](C)(O)C5)nc(OC[C@@]56CCCN5[C@H](COC(=O)N5CCC(CC#Cc7cccc8c7n(C)c(=O)n8C7CCC(=O)NC7=O)CC5)CC6)nc4c3F)c12 (stereo partly drawn) [Compound 374, ((3S,7aS)-7a-(((7-(8-ethynyl-7-fluoro-3-hydroxynaphthalen-1-yl)-8-fluoro-4-((R)-3-hydroxy-3-methylpiperidin-1-yl)pyrido[4,3-d]pyrimidin-2-yl)oxy)methyl)hexahydro-1H-pyrrolizin-3-yl)methyl 4-(3-(1-(2,6-dioxopiperidin-3-yl)-3-methyl-2-oxo-2,3-dihydro-1H-benzo[d]imidazol-4-yl)prop-2-yn-1-yl)piperidine-1-carboxylate] was run?
Its DC50 is 0.001 to 0.01 µM.

And the DC50 [2]?
The DC50 was 0.01 to 0.1 µM.

What about the DC50 ([3]; class symbols) of the same molecule?
The DC50 was 0.1 to 0.3 µM.

For CCc1c(F)ccc2cc(O)cc(-c3ncc4c(N5CCC[C@@](C)(O)C5)nc(OC[C@]56CCCN5[C@H](COC(=O)N5CCC(CCOc7ccc8c(c7)n(C)c(=O)n8C7CCC(=O)NC7=O)CC5)CC6)nc4c3F)c12 (stereo partly drawn) [Compound 300, ((3S,7aR)-7a-(((7-(8-ethyl-7-fluoro-3-hydroxynaphthalen-1-yl)-8-fluoro-4-((R)-3-hydroxy-3-methylpiperidin-1-yl)pyrido[4,3-d]pyrimidin-2-yl)oxy)methyl)hexahydro-1H-pyrrolizin-3-yl)methyl 4-(2-((1-(2,6-dioxopiperidin-3-yl)-3-methyl-2-oxo-2,3-dihydro-1H-benzo[d]imidazol-5-yl)oxy)ethyl)piperidine-1-carboxylate], which DC50 [1] is on record?
The DC50 was < 0.001 µM.

What about the DC50 [2] of the same molecule?
Its DC50 is < 0.01 µM.

And the DC50 ([3]; class symbols)?
The DC50 was < 0.1 µM.

With Cn1c(=O)n(C2CCC(=O)NC2=O)c2cc(F)c(C3CCN(CC4CCN(C(=O)OC[C@@H]5CC[C@]6(COc7nc(N8CCC[C@@](C)(O)C8)c8cnc(-c9cc(O)cc%10ccc(F)cc9%10)c(F)c8n7)CCCN56)CC4)CC3)cc21 (stereo partly drawn) [Compound 447, ((3S,7aS)-7a-(((8-fluoro-7-(7-fluoro-3-hydroxynaphthalen-1-yl)-4-((R)-3-hydroxy-3-methylpiperidin-1-yl)pyrido[4,3-d]pyrimidin-2-yl)oxy)methyl)hexahydro-1H-pyrrolizin-3-yl)methyl 4-((4-(1-(2,6-dioxopiperidin-3-yl)-6-fluoro-3-methyl-2-oxo-2,3-dihydro-1H-benzo[d]imidazol-5-yl)piperidin-1-yl)methyl)piperidine-1-carboxylate] as the molecule, how does the DC50 [1] read?
Its DC50 is < 0.001 µM.

What about the DC50 [2] of the same molecule?
Its DC50 is < 0.01 µM.

What about the DC50 ([3]; class symbols) of the same molecule?
Its DC50 is < 0.1 µM.
